Test results taken from patent US9113629B2, “4-amino-6-(4-substituted-phenyl)-picolinates and 6-amino-2-(4-substituted-phenyl)-pyrimidine-4-carboxylates and their use as herbicides” (DOW AGROSCIENCES LLC, priority 2013, dated 2015).

System: Key Broadleaf Weed and Crop Species
Assay: Post-emergent Test II herbicidal activity (Table 5)
Type: in vivo
Settings: post-emergence, 336 h; ABUTH: velvetleaf (Abutilon theophrasti); 70 g ai/ha; post-emergent; 14 days after application; read-out: Visual Growth Reduction (%) 14 Days After Application ABUTH
Procedure, shortened: (§1)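 Greenhouse post-emergent assay: seedlings (first/second true leaf) in Metro-Mix 360 were sprayed at 187 L/ha at a top rate plus twofold dilutions down to 1/16×; solvent-blank controls were included. Percent visual injury was read at 14 d.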
In the case of `Cc1c(-c2ccc(C(F)(F)F)c(F)c2)nc(C(=O)O)c(Cl)c1N` [Compound 161, 4-amino-3-chloro-6-(3-fluoro-4-(trifluoromethyl)phenyl)-5-methylpicolinic acid], the pest or weed control at 70 g/ha is reported as 75 to 84%.

Same assay, conditions: post-emergence, 336 h; ABUTH: velvetleaf (Abutilon theophrasti); 140 g ai/ha; post-emergent; 14 days after application; read-out: Visual Growth Reduction (%) 14 Days After Application ABUTH
Compound `Cc1c(-c2ccc(C(F)(F)F)c(F)c2)nc(C(=O)O)c(Cl)c1N` [Compound 161, 4-amino-3-chloro-6-(3-fluoro-4-(trifluoromethyl)phenyl)-5-methylpicolinic acid] has a pest or weed control at 140 g/ha of 85 to 94%.

Same assay, conditions: post-emergence, 336 h; AMARE: redroot pigweed (Amaranthus retroflexus); 70 g ai/ha; post-emergent; 14 days after application; read-out: Visual Growth Reduction (%) 14 Days After Application AMARE
With `Cc1c(-c2ccc(C(F)(F)F)c(F)c2)nc(C(=O)O)c(Cl)c1N` [Compound 161, 4-amino-3-chloro-6-(3-fluoro-4-(trifluoromethyl)phenyl)-5-methylpicolinic acid] the pest or weed control at 70 g/ha was 45 to 59%.

Same assay, conditions: post-emergence, 336 h; AMARE: redroot pigweed (Amaranthus retroflexus); 140 g ai/ha; post-emergent; 14 days after application; read-out: Visual Growth Reduction (%) 14 Days After Application AMARE
`Cc1c(-c2ccc(C(F)(F)F)c(F)c2)nc(C(=O)O)c(Cl)c1N` [Compound 161, 4-amino-3-chloro-6-(3-fluoro-4-(trifluoromethyl)phenyl)-5-methylpicolinic acid] showed a pest or weed control at 140 g/ha of 95 to 100%.

Same assay, conditions: post-emergence, 336 h; BRSNN: oilseed-rape, canola (Brassica napus); 70 g ai/ha; post-emergent; 14 days after application; read-out: Visual Growth Reduction (%) 14 Days After Application BRSNN
Compound `Cc1c(-c2ccc(C(F)(F)F)c(F)c2)nc(C(=O)O)c(Cl)c1N` [Compound 161, 4-amino-3-chloro-6-(3-fluoro-4-(trifluoromethyl)phenyl)-5-methylpicolinic acid] has a pest or weed control at 70 g/ha of 95 to 100%.

Same assay, conditions: post-emergence, 336 h; BRSNN: oilseed-rape, canola (Brassica napus); 140 g ai/ha; post-emergent; 14 days after application; read-out: Visual Growth Reduction (%) 14 Days After Application BRSNN
Compound `Cc1c(-c2ccc(C(F)(F)F)c(F)c2)nc(C(=O)O)c(Cl)c1N` [Compound 161, 4-amino-3-chloro-6-(3-fluoro-4-(trifluoromethyl)phenyl)-5-methylpicolinic acid] has a pest or weed control at 140 g/ha of 95 to 100%.

Same assay, conditions: post-emergence, 336 h; CHEAL: lambsquarters (Chenopodium album); 70 g ai/ha; post-emergent; 14 days after application; read-out: Visual Growth Reduction (%) 14 Days After Application CHEAL
`Cc1c(-c2ccc(C(F)(F)F)c(F)c2)nc(C(=O)O)c(Cl)c1N` [Compound 161, 4-amino-3-chloro-6-(3-fluoro-4-(trifluoromethyl)phenyl)-5-methylpicolinic acid] showed a pest or weed control at 70 g/ha of 95 to 100%.

Same assay, conditions: post-emergence, 336 h; CHEAL: lambsquarters (Chenopodium album); 140 g ai/ha; post-emergent; 14 days after application; read-out: Visual Growth Reduction (%) 14 Days After Application CHEAL
For `Cc1c(-c2ccc(C(F)(F)F)c(F)c2)nc(C(=O)O)c(Cl)c1N` [Compound 161, 4-amino-3-chloro-6-(3-fluoro-4-(trifluoromethyl)phenyl)-5-methylpicolinic acid], the pest or weed control at 140 g/ha was 95 to 100%.

Same assay, conditions: post-emergence, 336 h; EPHHL: wild poinsettia (Euphorbia heterophylla); 70 g ai/ha; post-emergent; 14 days after application; read-out: Visual Growth Reduction (%) 14 Days After Application EPHHL
`Cc1c(-c2ccc(C(F)(F)F)c(F)c2)nc(C(=O)O)c(Cl)c1N` [Compound 161, 4-amino-3-chloro-6-(3-fluoro-4-(trifluoromethyl)phenyl)-5-methylpicolinic acid] showed a pest or weed control at 70 g/ha of 0 to 29%.

Same assay, conditions: post-emergence, 336 h; EPHHL: wild poinsettia (Euphorbia heterophylla); 140 g ai/ha; post-emergent; 14 days after application; read-out: Visual Growth Reduction (%) 14 Days After Application EPHHL
Compound `Cc1c(-c2ccc(C(F)(F)F)c(F)c2)nc(C(=O)O)c(Cl)c1N` [Compound 161, 4-amino-3-chloro-6-(3-fluoro-4-(trifluoromethyl)phenyl)-5-methylpicolinic acid] has a pest or weed control at 140 g/ha of 0 to 29%.

Same assay, conditions: post-emergence, 336 h; HELAN: sunflower (Helianthus annuus); 70 g ai/ha; post-emergent; 14 days after application; read-out: Visual Growth Reduction (%) 14 Days After Application HELAN
`Cc1c(-c2ccc(C(F)(F)F)c(F)c2)nc(C(=O)O)c(Cl)c1N` [Compound 161, 4-amino-3-chloro-6-(3-fluoro-4-(trifluoromethyl)phenyl)-5-methylpicolinic acid] gave a pest or weed control at 70 g/ha of 95 to 100%.

Same assay, conditions: post-emergence, 336 h; HELAN: sunflower (Helianthus annuus); 140 g ai/ha; post-emergent; 14 days after application; read-out: Visual Growth Reduction (%) 14 Days After Application HELAN
For `Cc1c(-c2ccc(C(F)(F)F)c(F)c2)nc(C(=O)O)c(Cl)c1N` [Compound 161, 4-amino-3-chloro-6-(3-fluoro-4-(trifluoromethyl)phenyl)-5-methylpicolinic acid], the pest or weed control at 140 g/ha was 95 to 100%.

Same assay, conditions: post-emergence, 336 h; VIOTR: wild pansy (Viola tricolor); 70 g ai/ha; post-emergent; 14 days after application; read-out: Visual Growth Reduction (%) 14 Days After Application VIOTR
`Cc1c(-c2ccc(C(F)(F)F)c(F)c2)nc(C(=O)O)c(Cl)c1N` [Compound 161, 4-amino-3-chloro-6-(3-fluoro-4-(trifluoromethyl)phenyl)-5-methylpicolinic acid] showed a pest or weed control at 70 g/ha of 0 to 29%.

Same assay, conditions: post-emergence, 336 h; VIOTR: wild pansy (Viola tricolor); 140 g ai/ha; post-emergent; 14 days after application; read-out: Visual Growth Reduction (%) 14 Days After Application VIOTR
In the case of `Cc1c(-c2ccc(C(F)(F)F)c(F)c2)nc(C(=O)O)c(Cl)c1N` [Compound 161, 4-amino-3-chloro-6-(3-fluoro-4-(trifluoromethyl)phenyl)-5-methylpicolinic acid], the pest or weed control at 140 g/ha is reported as 0 to 29%.

System: Key Grass and Sedge Weeds as well as Grass Crops
Assay: Post-emergent Test II herbicidal activity (Table 6)
Type: in vivo
Settings: Triticum aestivum, post-emergence, 336 h, TRZSS (wheat), application rate 70 g ai/ha, read-out: Visual Growth Reduction (%) 14 Days After Application, TRZSS
Procedure, shortened: as §1
Compound `Cc1c(-c2ccc(C(F)(F)F)c(F)c2)nc(C(=O)O)c(Cl)c1N` [Compound 161, 4-amino-3-chloro-6-(3-fluoro-4-(trifluoromethyl)phenyl)-5-methylpicolinic acid] has a pest or weed control at 70 g/ha of 60 to 74%.

Same assay, conditions: Triticum aestivum, post-emergence, 336 h, TRZSS (wheat), application rate 140 g ai/ha, read-out: Visual Growth Reduction (%) 14 Days After Application, TRZSS
Compound `Cc1c(-c2ccc(C(F)(F)F)c(F)c2)nc(C(=O)O)c(Cl)c1N` [Compound 161, 4-amino-3-chloro-6-(3-fluoro-4-(trifluoromethyl)phenyl)-5-methylpicolinic acid] has a pest or weed control at 140 g/ha of 60 to 74%.

Same assay, conditions: post-emergence, 336 h, CYPES: yellow nutsedge (Cyperus esculentus), application rate 70 g ai/ha, read-out: Visual Growth Reduction (%) 14 Days After Application, CYPES
`Cc1c(-c2ccc(C(F)(F)F)c(F)c2)nc(C(=O)O)c(Cl)c1N` [Compound 161, 4-amino-3-chloro-6-(3-fluoro-4-(trifluoromethyl)phenyl)-5-methylpicolinic acid] showed a pest or weed control at 70 g/ha of 95 to 100%.

Same assay, conditions: post-emergence, 336 h, DIGSA: crabgrass (Digitaria sanguinalis), application rate 70 g ai/ha, read-out: Visual Growth Reduction (%) 14 Days After Application, DIGSA
`Cc1c(-c2ccc(C(F)(F)F)c(F)c2)nc(C(=O)O)c(Cl)c1N` [Compound 161, 4-amino-3-chloro-6-(3-fluoro-4-(trifluoromethyl)phenyl)-5-methylpicolinic acid] gave a pest or weed control at 70 g/ha of 30 to 44%.

Same assay, conditions: post-emergence, 336 h, DIGSA: crabgrass (Digitaria sanguinalis), application rate 140 g ai/ha, read-out: Visual Growth Reduction (%) 14 Days After Application, DIGSA
`Cc1c(-c2ccc(C(F)(F)F)c(F)c2)nc(C(=O)O)c(Cl)c1N` [Compound 161, 4-amino-3-chloro-6-(3-fluoro-4-(trifluoromethyl)phenyl)-5-methylpicolinic acid] showed a pest or weed control at 140 g/ha of 45 to 59%.

Same assay, conditions: post-emergence, 336 h, ECHCG: barnyardgrass (Echinochloa crus-galli), application rate 70 g ai/ha, read-out: Visual Growth Reduction (%) 14 Days After Application, ECHCG
In the case of `Cc1c(-c2ccc(C(F)(F)F)c(F)c2)nc(C(=O)O)c(Cl)c1N` [Compound 161, 4-amino-3-chloro-6-(3-fluoro-4-(trifluoromethyl)phenyl)-5-methylpicolinic acid], the pest or weed control at 70 g/ha is reported as 45 to 59%.

Same assay, conditions: post-emergence, 336 h, ECHCG: barnyardgrass (Echinochloa crus-galli), application rate 140 g ai/ha, read-out: Visual Growth Reduction (%) 14 Days After Application, ECHCG
For `Cc1c(-c2ccc(C(F)(F)F)c(F)c2)nc(C(=O)O)c(Cl)c1N` [Compound 161, 4-amino-3-chloro-6-(3-fluoro-4-(trifluoromethyl)phenyl)-5-methylpicolinic acid], the pest or weed control at 140 g/ha was 60 to 74%.

Same assay, conditions: post-emergence, 336 h, ORYSA: rice (Oryza sativa), application rate 70 g ai/ha, read-out: Visual Growth Reduction (%) 14 Days After Application, ORYSA
Compound `Cc1c(-c2ccc(C(F)(F)F)c(F)c2)nc(C(=O)O)c(Cl)c1N` [Compound 161, 4-amino-3-chloro-6-(3-fluoro-4-(trifluoromethyl)phenyl)-5-methylpicolinic acid] has a pest or weed control at 70 g/ha of 0 to 29%.

Same assay, conditions: post-emergence, 336 h, ORYSA: rice (Oryza sativa), application rate 140 g ai/ha, read-out: Visual Growth Reduction (%) 14 Days After Application, ORYSA
`Cc1c(-c2ccc(C(F)(F)F)c(F)c2)nc(C(=O)O)c(Cl)c1N` [Compound 161, 4-amino-3-chloro-6-(3-fluoro-4-(trifluoromethyl)phenyl)-5-methylpicolinic acid] showed a pest or weed control at 140 g/ha of 0 to 29%.

Same assay, conditions: post-emergence, 336 h, SETFA: giant foxtail (Setaria faberi), application rate 70 g ai/ha, read-out: Visual Growth Reduction (%) 14 Days After Application, SETFA
Work on `Cc1c(-c2ccc(C(F)(F)F)c(F)c2)nc(C(=O)O)c(Cl)c1N` [Compound 161, 4-amino-3-chloro-6-(3-fluoro-4-(trifluoromethyl)phenyl)-5-methylpicolinic acid] yielded a pest or weed control at 70 g/ha of 85 to 94%.

Same assay, conditions: post-emergence, 336 h, SETFA: giant foxtail (Setaria faberi), application rate 140 g ai/ha, read-out: Visual Growth Reduction (%) 14 Days After Application, SETFA
`Cc1c(-c2ccc(C(F)(F)F)c(F)c2)nc(C(=O)O)c(Cl)c1N` [Compound 161, 4-amino-3-chloro-6-(3-fluoro-4-(trifluoromethyl)phenyl)-5-methylpicolinic acid] showed a pest or weed control at 140 g/ha of 85 to 94%.

Same assay, conditions: post-emergence, 336 h, SORVU: grain sorghum (Sorghum vulgare), application rate 70 g ai/ha, read-out: Visual Growth Reduction (%) 14 Days After Application, SORVU
In the case of `Cc1c(-c2ccc(C(F)(F)F)c(F)c2)nc(C(=O)O)c(Cl)c1N` [Compound 161, 4-amino-3-chloro-6-(3-fluoro-4-(trifluoromethyl)phenyl)-5-methylpicolinic acid], the pest or weed control at 70 g/ha is reported as 0 to 29%.

Same assay, conditions: post-emergence, 336 h, SORVU: grain sorghum (Sorghum vulgare), application rate 140 g ai/ha, read-out: Visual Growth Reduction (%) 14 Days After Application, SORVU
With `Cc1c(-c2ccc(C(F)(F)F)c(F)c2)nc(C(=O)O)c(Cl)c1N` [Compound 161, 4-amino-3-chloro-6-(3-fluoro-4-(trifluoromethyl)phenyl)-5-methylpicolinic acid] the pest or weed control at 140 g/ha was 0 to 29%.

Same assay, conditions: post-emergence, 336 h, ZEAMX: maize, corn (Zea mays), application rate 70 g ai/ha, read-out: Visual Growth Reduction (%) 14 Days After Application, ZEAMX
Compound `Cc1c(-c2ccc(C(F)(F)F)c(F)c2)nc(C(=O)O)c(Cl)c1N` [Compound 161, 4-amino-3-chloro-6-(3-fluoro-4-(trifluoromethyl)phenyl)-5-methylpicolinic acid] has a pest or weed control at 70 g/ha of 60 to 74%.

Same assay, conditions: post-emergence, 336 h, ZEAMX: maize, corn (Zea mays), application rate 140 g ai/ha, read-out: Visual Growth Reduction (%) 14 Days After Application, ZEAMX
Compound `Cc1c(-c2ccc(C(F)(F)F)c(F)c2)nc(C(=O)O)c(Cl)c1N` [Compound 161, 4-amino-3-chloro-6-(3-fluoro-4-(trifluoromethyl)phenyl)-5-methylpicolinic acid] has a pest or weed control at 140 g/ha of 60 to 74%.

System: not given
Assay: not given
Settings: not given
With `Cc1c(-c2ccc(C(F)(F)F)c(F)c2)nc(C(=O)O)c(Cl)c1N` [Compound 161, 4-amino-3-chloro-6-(3-fluoro-4-(trifluoromethyl)phenyl)-5-methylpicolinic acid] the melting point was 170 to 171.5 °C.
